Assay results taken from patent US20110124888A1, “STYRYLBENZOFURAN DERIVATIVES AS INHIBITORS FOR BETA-AMYLOID FIBRIL FORMATION AND PREPARATION METHOD THEREOF” (Korea Institute of Science and Technology, priority 2008, published 2011).

Experiments:
[1] = Pharmacokinetics test in mice (plasma); type: in vivo, ICR mice; conditions: for AUC / Cmax / Tmax: ICR, mouse, plasma; for AUC / Cmax / Tmax / BA: mice; for AUC: n = 3; for AUC (in words) / bioavailability (in words): mice and rats, Tables 8 and 9; for BA: 2.5 mg/kg po vs 1.25 mg/kg iv
Procedure: (§1) 1) Test Animal and Administration of Test Compound
(§2) Three 7 week-old ICR mice (weight: about 30 g) and three 8 week-old SD rats (weight: about 250 g) were used per test group. A solution prepared by dissolving the compounds of Examples 9 and 17 in excipient (DMSO/Tween 20/saline: 0.1/0.6/2.3, v/v/v) were administered to each experimental animal. The test compound was orally administered in an amount of 10 mL per kg of body weight or intravenously administered in an amount of 5 mL per kg of body weight through the fine vein.
(§3) 2) Blood Concentration Test
(§4) At 30 min, 1 hr, 2 hr, 4 hr, 10 hr and 24 hr after oral administration of the test compounds, the blood was collected from periorbital veins into the tube containing heparin (1000 IU/mL, 3 μl) for the mice, and from jugular vein for rats. The blood sample was centrifuged at 12,000 rpm for 2 min to obtain plasma. The obtained plasma was kept in freezer at −80° C. until the analysis.
(§5) The sample was analyzed using LC/MSMS system under the following condition:
(§6) The sample was pretreated as follows:
(§7) 50 μL of plasma was placed in 2.0 mL of tube having a cap (Eppendorf Co.) and acidified by adding 20 μL of 0.1% formic acid thereto. An internal standard solution and 1 mL of ethyl acetate as an extract solvent were added to the resultant solution. The resultant solution was mixed using thermomixer (Eppendorf Co.) at 1400 rpm for 5 min, and then subjected to centrifuge (Eppendorf Co.). The supernatant was collected and concentrated at 35° C. using cyclone. The residue was re-dissolved in 50 μL of moblie phase and 5 μL of the resulting solution was injected into LC/MS and analyzed.
(§8) In Tables 8 and 9, “iv” refers to a intravenous injection; “po” refers to a per oral; “AUC plasma” refers to an area under the plasma level-time curve; “Cmax” refers to a maximum plasma concentration; “Tmax” refers to a time to reach Cmax, “BA” refers to a bioavailability (%) according to Equation 2 below; “AUC Brain” refers to a area under the brain tissue level-time curve; and “AUCBrain/AUCPlasma” refers to a passage rate of the test compound to the brain.
(§9) Bioavailability (%)=[(AUCpo/AUCiv)×(Doseiv/Dosepo)×100] Equation 2
(§10) wherein, AUCpo means an area under the blood concentration time curve (AUC) after the per oral administration, AUCiv means an AUC after the intravenous injection, Doseiv means an amount of the intravenous injection, and Dosepo means an amount of the per oral administration.

[2] = Pharmacokinetics test in rats (plasma); type: in vivo, SD rats; conditions: for BA: 2.5 mg/kg po vs 1.25 mg/kg iv; for AUC / Cmax / Tmax: SD, rat, plasma; for AUC: n = 3
Procedure: as §1, §2, §3, §4, §5, §6, §7, §8, §9, §10

[3] = Passage test through the blood-brain barrier in mice (brain tissue); type: in vivo, ICR mice; conditions: for Kp / Tmax: mouse; for Kp: brain; for Tmax / Cmax (brain): brain tissue
Procedure: as §1, §2
(§11) 2) Measurement of Concentration in Blood and Tissue (Simultaneous Test)
(§12) At 30 min, 1 hr, 2 hr, 4 hr, 10 hr and 24 hr after administration of test compound, the mice and rats were subjected to insufflations narcosis using isoflorane, followed by cutting the abdomen open. 1 mL of blood was collected from abdominal veins into the tube containing heparin (1000 IU/mL, 3 μl). The obtained blood sample was centrifuged at 12,000 rpm, for 2 min to obtain plasma. The obtained plasma was kept in freezer at −80° C. until the analysis.
(§13) (2) Organ Tissue-Sampling
(§14) The mice and rats from which the blood sample was obtained were subjected to bloodletting, and then, brain tissue of the mice and rats was collected. The brain tissue thus obtained was washed with physiological saline once or twice to remove blood. The weight of the brain tissue was measured after the removal of adipose tissue and peripheral tissue. 4% bovine serum albumin (BSA) solution diluted with 10-fold was added to the brain tissue. The resulting solution was subjected to homogenization using the homogenizer. The diluted homogenate thus obtained was placed in 2 ml of tube and was kept in freezer at −80° C. until the analysis. All of the treatments to the samples were performed in ice.
as §5, §6
as §7, with “plasma were” for “plasma was”, “5 min” for “5 min,”
as §8

[4] = Passage test through the blood-brain barrier in rats (brain tissue); type: in vivo, SD rats; conditions: for Cmax (brain) / Tmax: brain tissue; for Tmax / Kp: SD, rat; for Kp: brain, read-out: AUCBrain/AUC Plasma
Procedure: as §1, §2, §11, §12, §13, §14, §5, §6
as §7, with “plasma were” for “plasma was”, “5 min” for “5 min,”
as §8

[5] = system: transgenic double tg mice (APPswe, PSEN1 dE9); assay: In vivo fear conditioning test in transgenic mice; conditions: for Increase rate (fold) of freezing: 5 to 12 months of age, based on the freezing (%) of Tg vehicle group
Procedure: The tails of 3-week old mice born from Male B6C3-Tg (APPswe, PSEN1 dE9, Jackson Laboratory Co., Maine, A) and female B6C3F1 (central Lab. Animal Inc., Korea) were cut in lengths of about 0.5 cm (tail biopsy). The genomic DNAs were extracted from the tail samples and subjected to a genotype analysis to screen transgenic double tg mice.
From 5 months to 12 months after the birth, the mice were administered orally with the compound of Example 9, in an amount of 30 mg/kg or 100 mg/kg every day. As a comparative compound, tramiprosate (Aisen, P. S. et. al., Curr. Alzheimer Res. 2007, 4, 473) was used, which binds to beta-amyloid protein to inhibit the deposition and cytotoxicity to the protein. The compounds were administrated.
3) Fear Conditioning Test
At the First day of training, the mice were placed in a conditioning box and adjusted for 2 min. The fear conditioning was performed with a conditional stimulus (CS) of 75 dB for 20 sec, together with an electrical stimulus (unconditional stimulus (US)) of 0.5 mA for final 2 sec in the conditional stimulus period. After 1 min, the animals were transferred to a cage. After 24 hrs, the retention test was performed. The animals were placed in the same conditioning box as used above and observed for 5 min. The freezing response was measured without CS and US. The freezing response is defined in the state of the animals keeping still except for breathing.

[6] = ICR (mice), SD (rats), mice and rats, Tables 8 and 9, read-out: passage ability through the blood-brain barrier compared with plasma
[7] = ICR, mice, 1.25 mg/kg, iv, read-out: AUCBrain/AUC Plasma
[8] = ICR, mice, 2.5 mg/kg, po, read-out: AUCBrain/AUC Plasma

SMILES	AUC ([1]; 1.25 mg/kg, iv) [ng·h/mL]	Cmax ([1]; 2.5 mg/kg, po) [ng/mL]	Tmax ([1]; 2.5 mg/kg, po) [h]	AUC ([1]; 2.5 mg/kg, po) [ng·h/mL]	AUC (in words) [1]	bioavailability (in words) [1]	BA [1] [%]	BA [2] [%]	AUC ([2]; 1.25 mg/kg, iv) [ng·h/mL]	Cmax ([2]; 2.5 mg/kg, po) [ng/mL]	Tmax ([2]; 2.5 mg/kg, po) [h]	AUC ([2]; 2.5 mg/kg, po) [ng·h/mL]	Kp [3, 6]	Kp [3, 7]	Kp [3, 8]	Tmax ([3]; ICR, mice, 2.5 mg/kg, po) [h]	AUC Brain ([3]; mice, 1.25 mg/kg, iv) [ng·h/mL]	AUC Brain ([3]; mice, 2.5 mg/kg, po) [ng·h/mL]	Cmax (brain) ([3]; mice, 2.5 mg/kg, po) [ng/mL]	AUC Brain ([4]; 1.25 mg/kg, iv) [ng·h/mL]	also measured
COc1ccc2cc(C=Cc3ccc(N(C)C)cc3)oc2c1 [Compound 9, 6-methoxy-2-(4-dimethylaminostyryl)benzofuran]	503	172	0.83	646	high degree of AUC	superior bioavailability	64.2	27.8	1640	215	1.67	908	≥ 1	12.1	12.6	4	6101.86	8137.42	899.33	17939.63	AUC Brain ([4]; 2.5 mg/kg, po): 15241.92 ng·h/mL; Cmax (brain) ([4]; 2.5 mg/kg, po): 1309.00 ng/mL; Tmax ([4]; 2.5 mg/kg, po): 2 h; Kp ([4]; 1.25 mg/kg, iv): 11; Kp ([4]; 2.5 mg/kg, po): 16.8; Increase rate (fold) of freezing ([5]; 30 mg/kg orally every day): 3.2 fold; Increase rate (fold) of freezing ([5]; 100 mg/kg orally every day): 3.8 fold; degree of memory compared with tramiprosate (in words) ([5]; 30 and 100 mg/kg): much higher degree of memory in a dose-dependent manner
CNc1ccc(C=Cc2cc3cc(OC)ccc3o2)cc1 [Compound 17, 5-methoxy-2-(4-methylaminostyryl)benzofuran]	237	96.5	0.83	326	high degree of AUC	superior bioavailability	68.8	22.4	1140	122	1.33	516	≥ 1	10.6	7.2	2	2525.45	2354.58	462.67	8740.33	AUC Brain ([4]; 2.5 mg/kg, po): 11237.67 ng·h/mL; Cmax (brain) ([4]; 2.5 mg/kg, po): 1406.67 ng/mL; Tmax ([4]; 2.5 mg/kg, po): 1.67 h; Kp ([4]; 1.25 mg/kg, iv): 7.6; Kp ([4]; 2.5 mg/kg, po): 21.8
